Data published in patent publication US10703749B2, “P2X7 modulators” (Janssen Pharmaceutica NV, priority 2013, dated 2020).

Each compound was assayed against P2X7 (Homo sapiens (Human), UniProt Q99572) (assay: P2X7 antagonism in human PBMCs (IL-1β release, ELISA)). Settings: 10 μM test compound, LPS 30 ng/ml + Bz-ATP 0.5 mM.
Format: cell-based
Description: Human blood was collected using a blood donor program. PBMCs were isolated from blood using a Ficoll density gradient technique. Briefly, blood was laid on Ficoll solution and centrifuged at RT for 20 minutes at 2000 rpm. The buffy layer (between red blood cells and plasma) was carefully collected by aspiration, washed with PBS and centrifuged again at 1500 rpm for 15 minutes. The resulting cell pellet was washed and plated on 96 well-plates for experiments. For the Mouse/Human Whole Blood experiments, 150 μl of either mouse or human blood was platted on 96 well-plates. Lipopolysaccharide (LPS) (30 ng/ml) was added to each well and incubated for 1 hour. Test compounds were then added and incubated for 30 minutes. The P2X7 agonist, 2′(3′)-O-(4-benzoylbenzoyl) adenosine 5′-triphosphate (Bz-ATP) was then added at a final concentration of 0.5 mM (PBMC) or 1 mM (blood). Cells were incubated for an additional 1.5 hours. At that point, supernatant was collected and stored for IL-1β assay using manufacturer's protocol for enzyme-linked immunosorbent assay (ELISA). Data was expressed as percent control, where control is defined as the difference in IL-1β release in LPS+Bz-ATP samples and LPS only samples. Data was plotted as response (% control) versus concentration to generate IC50 values.

P2X7, sequence (Q99572 whole entry): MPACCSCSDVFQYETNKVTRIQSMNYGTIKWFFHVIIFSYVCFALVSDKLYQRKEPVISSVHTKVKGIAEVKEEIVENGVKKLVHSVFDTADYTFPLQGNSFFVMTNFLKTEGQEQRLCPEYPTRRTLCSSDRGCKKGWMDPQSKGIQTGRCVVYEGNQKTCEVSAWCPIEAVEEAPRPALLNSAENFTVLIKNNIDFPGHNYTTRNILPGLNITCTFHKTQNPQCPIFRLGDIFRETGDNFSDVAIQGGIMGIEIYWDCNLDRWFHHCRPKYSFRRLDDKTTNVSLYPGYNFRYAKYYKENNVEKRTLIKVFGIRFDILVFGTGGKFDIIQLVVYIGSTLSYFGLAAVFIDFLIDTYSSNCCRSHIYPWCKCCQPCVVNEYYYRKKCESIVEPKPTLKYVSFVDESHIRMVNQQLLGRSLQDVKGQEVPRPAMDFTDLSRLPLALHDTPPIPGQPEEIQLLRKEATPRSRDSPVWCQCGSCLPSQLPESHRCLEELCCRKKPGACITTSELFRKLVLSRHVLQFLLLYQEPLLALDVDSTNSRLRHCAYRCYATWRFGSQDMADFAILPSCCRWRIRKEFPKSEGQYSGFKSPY

| SMILES | PBMC 10 μM (% control) |
| --- | --- |
| Cc1c(C(=O)N2Cc3nnn(C4=NN=CC4)c3CC2C)cccc1C(F)(F)F (stereo not shown) [Example 154, (6-methyl-1-(1H-pyrazol-3-yl)-6,7-dihydro-1H-[1,2,3]triazolo[4,5-c]pyridin-5(4H)-yl)(2-methyl-3-(trifluoromethyl)phenyl)methanone] | −0.6 |
| Cc1cc(C)nc(-n2nnc3c2CCN(C(=O)c2cccc(C(F)(F)F)c2Cl)C3C)n1 (stereo not shown) [Example 253, (2-Chloro-3-(trifluoromethyl)phenyl)(1-(4,6-dimethylpyrimidin-2-yl)-4-methyl-6,7-dihydro-1H-[1,2,3]triazolo[4,5-c]pyridin-5(4H)-yl)methanone] | −2.6 |
| CC1c2nn(COCC[Si](C)(C)C)c(-c3ncc(F)cn3)c2CCN1C(=O)c1cccc(C(F)(F)F)c1Cl (stereo not shown) [Example 303, (2-chloro-3-(trifluoromethyl)phenyl)(3-(5-fluoropyrimidin-2-yl)-7-methyl-2-((2-(trimethylsilyl)ethoxy)methyl)-4,5-dihydro-2H-pyrazolo[3,4-c]pyridin-6(7H)-yl)methanone] | −1.6 |
| Cc1nc2c(n1-c1ccccc1)CCN(C(=O)c1cccc(Cl)c1Cl)C2 [Example 331, (2,3-dichlorophenyl)(2-methyl-1-phenyl-6,7-dihydro-1H-imidazo[4,5-c]pyridin-5 (4H)-yl)methanone] | −11.0 |
